In US20260356819A1, “OXOISOINDOLINYL-SUBSTITUTED […] DERIVATIVE AND USE THEREOF” (GLUETACS THERAPEUTICS (SHANGHAI) CO., LTD., priority 2023, published 2026):

Experiments:
Type in all cases: cell-based
Conditions in all cases: compounds at 50 nM and 500 nM
WEE1 = molecular target: T1, WEE1 (Homo sapiens, UniProt P30291+Q96SW2); experiment: Western blot degradation of WEE1 in hPBMCs (24 h)
T1 construct: The supernatant was aspirated as the extracted total cell protein; endogenous in cells; host or cells: human peripheral blood mononuclear cells (hPBMCs)
T1 sequence (P30291 whole entry): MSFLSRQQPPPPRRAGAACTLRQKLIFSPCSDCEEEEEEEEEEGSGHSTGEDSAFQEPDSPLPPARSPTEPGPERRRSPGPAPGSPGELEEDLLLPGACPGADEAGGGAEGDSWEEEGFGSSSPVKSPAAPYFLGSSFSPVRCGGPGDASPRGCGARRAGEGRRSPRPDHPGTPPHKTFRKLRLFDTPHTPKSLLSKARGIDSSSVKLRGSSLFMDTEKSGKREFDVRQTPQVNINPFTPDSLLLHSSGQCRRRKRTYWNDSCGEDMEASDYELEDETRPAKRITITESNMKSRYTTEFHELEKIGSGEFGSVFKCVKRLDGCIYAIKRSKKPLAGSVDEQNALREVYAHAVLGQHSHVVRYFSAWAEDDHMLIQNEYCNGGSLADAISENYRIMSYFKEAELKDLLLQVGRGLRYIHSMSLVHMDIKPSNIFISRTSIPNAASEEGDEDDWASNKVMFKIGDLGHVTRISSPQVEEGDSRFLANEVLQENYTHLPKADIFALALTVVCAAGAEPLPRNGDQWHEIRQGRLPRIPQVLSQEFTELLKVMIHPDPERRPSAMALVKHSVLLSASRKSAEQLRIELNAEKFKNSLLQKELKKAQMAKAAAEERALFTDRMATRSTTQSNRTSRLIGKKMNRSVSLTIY
T1 sequence (Q96SW2 whole entry): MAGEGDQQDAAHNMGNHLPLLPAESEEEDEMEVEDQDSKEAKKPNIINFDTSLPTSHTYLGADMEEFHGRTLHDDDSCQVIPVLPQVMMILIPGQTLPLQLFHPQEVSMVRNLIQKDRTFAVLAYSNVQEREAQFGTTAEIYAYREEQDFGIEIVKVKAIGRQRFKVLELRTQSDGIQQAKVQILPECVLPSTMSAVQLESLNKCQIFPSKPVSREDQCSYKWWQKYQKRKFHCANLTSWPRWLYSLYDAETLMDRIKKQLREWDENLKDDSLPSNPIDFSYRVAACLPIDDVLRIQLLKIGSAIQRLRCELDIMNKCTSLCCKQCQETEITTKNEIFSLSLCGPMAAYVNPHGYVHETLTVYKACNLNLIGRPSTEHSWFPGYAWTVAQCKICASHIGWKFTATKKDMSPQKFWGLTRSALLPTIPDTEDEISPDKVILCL
T1 sequence (Q16531 whole entry partner): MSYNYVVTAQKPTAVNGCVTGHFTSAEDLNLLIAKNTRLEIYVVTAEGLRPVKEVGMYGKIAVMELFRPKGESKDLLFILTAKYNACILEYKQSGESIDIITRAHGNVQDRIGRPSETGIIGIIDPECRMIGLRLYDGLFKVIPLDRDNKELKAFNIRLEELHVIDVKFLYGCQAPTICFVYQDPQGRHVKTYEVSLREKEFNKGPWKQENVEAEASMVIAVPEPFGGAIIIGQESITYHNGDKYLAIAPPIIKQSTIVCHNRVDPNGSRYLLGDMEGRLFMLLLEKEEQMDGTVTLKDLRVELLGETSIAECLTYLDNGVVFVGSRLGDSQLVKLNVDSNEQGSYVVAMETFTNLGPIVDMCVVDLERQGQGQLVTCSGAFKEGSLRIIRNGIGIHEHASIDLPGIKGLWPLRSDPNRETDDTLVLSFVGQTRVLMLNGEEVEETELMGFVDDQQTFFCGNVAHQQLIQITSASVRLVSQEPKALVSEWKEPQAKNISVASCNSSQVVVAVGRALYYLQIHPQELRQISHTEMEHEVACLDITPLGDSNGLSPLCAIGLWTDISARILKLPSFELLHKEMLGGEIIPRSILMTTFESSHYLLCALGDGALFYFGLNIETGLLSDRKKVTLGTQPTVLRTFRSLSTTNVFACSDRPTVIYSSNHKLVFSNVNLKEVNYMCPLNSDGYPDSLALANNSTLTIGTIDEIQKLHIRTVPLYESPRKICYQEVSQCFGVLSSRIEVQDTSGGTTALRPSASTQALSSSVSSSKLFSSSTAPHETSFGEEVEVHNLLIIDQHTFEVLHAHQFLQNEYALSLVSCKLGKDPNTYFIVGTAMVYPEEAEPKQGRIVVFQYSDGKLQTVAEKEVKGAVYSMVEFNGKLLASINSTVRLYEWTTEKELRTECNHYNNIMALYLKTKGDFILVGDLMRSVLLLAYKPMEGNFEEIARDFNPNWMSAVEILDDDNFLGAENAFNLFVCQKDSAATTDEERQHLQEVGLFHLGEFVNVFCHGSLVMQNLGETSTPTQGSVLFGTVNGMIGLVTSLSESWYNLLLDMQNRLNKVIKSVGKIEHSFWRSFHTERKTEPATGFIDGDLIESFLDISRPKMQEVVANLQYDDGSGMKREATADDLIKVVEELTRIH
Procedure, shortened: (§1)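 PBMC Western blot, 24 h treatment; test levels 50 nM and 500 nM. Band density ÷ internal control, normalised → % remaining; degradation (%) = 1 − remaining.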

IKZF1 = molecular target: T2, IKZF1 (Homo sapiens, UniProt Q13422+Q96SW2); experiment: Western blot degradation of IKZF1 in hPBMCs (24 h)
T2 construct: The supernatant was aspirated as the extracted total cell protein; endogenous in cells; host or cells: human peripheral blood mononuclear cells (hPBMCs)
T2 sequence (Q13422 whole entry): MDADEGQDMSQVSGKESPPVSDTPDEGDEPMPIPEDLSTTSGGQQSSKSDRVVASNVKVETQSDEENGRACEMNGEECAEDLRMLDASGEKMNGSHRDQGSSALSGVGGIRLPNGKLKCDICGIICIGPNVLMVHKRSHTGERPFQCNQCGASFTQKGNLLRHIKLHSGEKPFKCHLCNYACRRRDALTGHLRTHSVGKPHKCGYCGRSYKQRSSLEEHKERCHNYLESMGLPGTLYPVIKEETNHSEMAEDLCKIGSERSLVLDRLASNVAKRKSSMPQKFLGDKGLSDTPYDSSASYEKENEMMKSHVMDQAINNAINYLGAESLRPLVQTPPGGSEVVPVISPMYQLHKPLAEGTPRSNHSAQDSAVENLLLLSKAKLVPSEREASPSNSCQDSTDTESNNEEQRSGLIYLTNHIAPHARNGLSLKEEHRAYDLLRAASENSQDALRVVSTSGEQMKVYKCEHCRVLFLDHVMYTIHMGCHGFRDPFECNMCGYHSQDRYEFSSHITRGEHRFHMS
T2 sequence (Q96SW2 whole entry): as the sequence (Q96SW2 whole entry) above
T2 sequence (Q16531 whole entry partner): as the sequence (Q16531 whole entry partner) above
Procedure, shortened: as §1

IKZF2 = molecular target: T3, IKZF2 (Homo sapiens, UniProt Q96SW2+Q9UKS7); experiment: Western blot degradation of IKZF2 in hPBMCs (24 h)
T3 construct: The supernatant was aspirated as the extracted total cell protein; endogenous in cells; host or cells: human peripheral blood mononuclear cells (hPBMCs)
T3 sequence (Q9UKS7 whole entry): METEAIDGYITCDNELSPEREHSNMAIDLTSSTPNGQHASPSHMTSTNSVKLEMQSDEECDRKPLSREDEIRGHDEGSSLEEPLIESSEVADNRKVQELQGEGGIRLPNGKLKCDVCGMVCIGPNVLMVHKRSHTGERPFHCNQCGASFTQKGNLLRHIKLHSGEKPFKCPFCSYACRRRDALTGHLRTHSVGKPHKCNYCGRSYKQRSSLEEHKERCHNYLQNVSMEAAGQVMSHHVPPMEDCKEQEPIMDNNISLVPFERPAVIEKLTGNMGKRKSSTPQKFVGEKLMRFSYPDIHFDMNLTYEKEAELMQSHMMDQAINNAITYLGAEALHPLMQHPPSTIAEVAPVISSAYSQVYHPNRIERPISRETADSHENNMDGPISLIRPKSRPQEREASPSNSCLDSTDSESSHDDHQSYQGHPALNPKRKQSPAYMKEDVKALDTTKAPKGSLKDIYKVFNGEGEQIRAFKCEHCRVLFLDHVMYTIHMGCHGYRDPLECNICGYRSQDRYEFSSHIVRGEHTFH
T3 sequence (Q96SW2 whole entry): as the sequence (Q96SW2 whole entry) above
T3 sequence (Q16531 whole entry partner): as the sequence (Q16531 whole entry partner) above
Procedure, shortened: as §1

IKZF3 = molecular target: T4, IKZF3 (Homo sapiens, UniProt Q96SW2+Q9UKT9); experiment: Western blot degradation of IKZF3 in hPBMCs (24 h)
T4 construct: The supernatant was aspirated as the extracted total cell protein; endogenous in cells; host or cells: human peripheral blood mononuclear cells (hPBMCs)
Procedure, shortened: as §1

CK1α = molecular target: T5, CK1α (Homo sapiens, UniProt P48729+Q96SW2); experiment: Western blot degradation of CK1α in hPBMCs (24 h)
T5 construct: The supernatant was aspirated as the extracted total cell protein; endogenous in cells; host or cells: human peripheral blood mononuclear cells (hPBMCs)
T5 sequence (P48729 whole entry): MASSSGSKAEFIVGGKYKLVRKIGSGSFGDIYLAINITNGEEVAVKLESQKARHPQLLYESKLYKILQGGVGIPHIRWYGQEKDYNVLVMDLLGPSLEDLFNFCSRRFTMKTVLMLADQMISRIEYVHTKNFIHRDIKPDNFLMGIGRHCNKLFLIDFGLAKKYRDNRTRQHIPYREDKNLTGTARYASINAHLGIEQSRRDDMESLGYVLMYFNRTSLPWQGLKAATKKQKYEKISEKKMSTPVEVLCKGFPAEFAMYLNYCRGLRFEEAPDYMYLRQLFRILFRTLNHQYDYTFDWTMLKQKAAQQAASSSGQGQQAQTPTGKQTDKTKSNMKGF
T5 sequence (Q96SW2 whole entry): as the sequence (Q96SW2 whole entry) above
T5 sequence (Q16531 whole entry partner): as the sequence (Q16531 whole entry partner) above
Procedure, shortened: as §1

GSPT1 = molecular target: T6, GSPT1 (Homo sapiens, UniProt P15170+Q96SW2); experiment: Western blot degradation of GSPT1 in hPBMCs (24 h)
T6 construct: The supernatant was aspirated as the extracted total cell protein; endogenous in cells; host or cells: human peripheral blood mononuclear cells (hPBMCs)
T6 sequence (P15170 whole entry): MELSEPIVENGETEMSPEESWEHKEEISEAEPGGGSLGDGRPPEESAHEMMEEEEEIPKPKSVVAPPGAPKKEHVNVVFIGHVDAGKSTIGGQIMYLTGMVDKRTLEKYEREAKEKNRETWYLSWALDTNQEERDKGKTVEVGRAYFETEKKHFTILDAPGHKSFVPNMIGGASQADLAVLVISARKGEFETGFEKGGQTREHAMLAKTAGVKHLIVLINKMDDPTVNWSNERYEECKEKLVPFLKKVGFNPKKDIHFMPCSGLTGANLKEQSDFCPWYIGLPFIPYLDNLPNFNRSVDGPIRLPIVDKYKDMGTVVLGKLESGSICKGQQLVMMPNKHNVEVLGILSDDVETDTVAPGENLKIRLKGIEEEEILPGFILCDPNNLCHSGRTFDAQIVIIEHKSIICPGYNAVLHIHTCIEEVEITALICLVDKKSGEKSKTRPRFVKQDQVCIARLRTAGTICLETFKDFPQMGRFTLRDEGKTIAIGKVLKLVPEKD
T6 sequence (Q96SW2 whole entry): as the sequence (Q96SW2 whole entry) above
T6 sequence (Q16531 whole entry partner): as the sequence (Q16531 whole entry partner) above
Procedure, shortened: as §1

Structure (SMILES) | WEE1 substrate protein remaining % (WEE1) | IKZF1 substrate protein remaining % (IKZF1) | IKZF2 substrate protein remaining % (IKZF2) | IKZF3 substrate protein remaining % (IKZF3) | CK1α substrate protein remaining % (CK1α) | GSPT1 substrate protein remaining % (GSPT1)
Cc1nc(C2CCN(Cc3ccc4c(c3)C(=O)N(N3CCC(=O)NC3=O)C4=O)CC2)c2ccsc2n1 [GT-05272, 2-(2,4-dioxotetrahydropyrimidin-1(2H)-yl)-5-((4-(2-methylthieno[2,3-d]pyrimidin-4-yl)piperidin-1-yl)methyl)isoindoline-1,3-dione] | B (80%< substrate protein remaining % ≤100%) | B (80%< substrate protein remaining % ≤100%) | A (0% ≤ substrate protein remaining % ≤80%) | B (80%< substrate protein remaining % ≤100%) | B (80%< substrate protein remaining % ≤100%) | B (80%< substrate protein remaining % ≤100%)
Cc1sc2ncnc(C3=CCN(Cc4ccc5c(c4)C(=O)N(N4CCC(=O)NC4=O)C5=O)CC3)c2c1C [GT-05273, 5-((4-(5,6-dimethylthieno[2,3-d]pyrimidin-4-yl)-3,6-dihydropyridin-1(2H)-yl)methyl)-2-(2,4-dioxotetrahydropyrimidin-1(2H)-yl)isoindoline-1,3-dione] | B (80%< substrate protein remaining % ≤100%) | B (80%< substrate protein remaining % ≤100%) | A (0% ≤ substrate protein remaining % ≤80%) | B (80%< substrate protein remaining % ≤100%) | B (80%< substrate protein remaining % ≤100%) | B (80%< substrate protein remaining % ≤100%)
Cn1cc(C2=CCN(Cc3ccc4c(c3)C(=O)N(N3CCC(=O)NC3=O)C4=O)CC2)c2ccc(F)cc21 [GT-05276, 2-(2,4-dioxotetrahydropyrimidin-1(2H)-yl)-5-((4-(6-fluoro-1-methyl-1H-indol-3-yl)-3,6-dihydropyridin-1(2H)-yl)methyl)isoindoline-1,3-dione] | B (80%< substrate protein remaining % ≤100%) | B (80%< substrate protein remaining % ≤100%) | B (80%< substrate protein remaining % ≤100%) | A (0% ≤ substrate protein remaining % ≤80%) | B (80%< substrate protein remaining % ≤100%) | A (0% ≤ substrate protein remaining % ≤80%)
Cc1ccc(N2CCN(Cc3ccc4c(c3)C(=O)N(N3CCC(=O)NC3=O)C4=O)CC2)s1 [GT-05309, 2-(2,4-dioxotetrahydropyrimidin-1(2H)-yl)-5-((4-(5-methylthiophen-2-yl)piperazin-1-yl)methyl)isoindoline-1,3-dione] | B (80%< substrate protein remaining % ≤100%) | B (80%< substrate protein remaining % ≤100%) | B (80%< substrate protein remaining % ≤100%) | B (80%< substrate protein remaining % ≤100%) | B (80%< substrate protein remaining % ≤100%) | A (0% ≤ substrate protein remaining % ≤80%)
